Article PMC11237694, “Novel pentafluorosulfanyl-containing triclocarban analogs selectively kill Gram-positive bacteria” (Microbiology Spectrum, 2024)
Converted amounts (≈) assume the structure as drawn. Values belong to the compound of their own block, whether it stands above or below them.

Tests used:
[1] = tested on: 10 clinical isolates of MRSA from Foothills Hospital, Calgary; test: Planktonic susceptibility (MIC/MBC) of MRSA clinical isolates; type: cell-based, methicillin-resistant S. aureus; conditions: Staphylococcus aureus
Description: (§1) All bacterial strains subjected to testing had been stored at −70°C prior to the experiment. The experiment commenced by streaking small amounts of the frozen bacterial samples onto Muller-Hinton agar (MHA) culture medium (BD Bacto, Oxoid, Basingstoke, UK Cat# X296B) and allowing for overnight incubation. Bacteria were re-cultured on MHA plates as required to confirm colony morphology and lack of contamination. Strains tested were P. aeruginosa ATCC 27853, E. coli ATCC 25922, Staphylococcus aureus ATCC 25923, MRSA ATCC 33591, S. epidermidis ATCC 12228, Klebsiella pneumoniae ATCC, P. mirabilis ATCC 35659, and 10 clinical isolates of MRSA from Foothills Hospital, Calgary, Canada. To prepare for susceptibility testing, a protocol modified from Lemire et al was used ([28]). MHB was swab-inoculated from MHA colonies and shake-incubated until turbid. Dilution of the broth with 0.9% saline was performed as necessary to match a 1.0 McFarland standard.
(§2) MIC and MBC assessments were conducted on all bacterial strains using 96-well microtiter plates. To prepare the wells for bacteria, serial dilutions of the antibacterial agents were carried out along the rows of two microtiter plates. The antibacterials were 2-fold diluted with Mueller-Hinton broth (MHB) in each column, reaching a volume of 75 µL. The 1.0 McFarland standard was diluted 15-fold in MHB, and 75 µL of inoculum was added to the wells treated with antibacterials, resulting in a total volume of 150 µL. The microtiter plates were covered and then shake-incubated overnight at 150 rpm and 37°C. MIC was determined based on visible bacterial growth. […] MBC was determined by transferring 3 µL of culture from all MIC microtiter plate wells to 147 µL of Mueller-Hinton broth in fresh plates. These plates were shake-incubated overnight at 150 rpm and 37°C, and bacterial growth was visually inspected.

[2] = tested on: MRSA ATCC 33591; test: Planktonic susceptibility (MIC/MBC), 96-well broth microdilution; type: cell-based, methicillin-resistant S. aureus; conditions: Staphylococcus aureus, MRSA reference strain; for MIC: planktonic, overnight 37°C in MHB
Description: as §1, §2

[3] = tested on: S. epidermidis ATCC 12228; test: as above; type: cell-based, Staphylococcus epidermidis; conditions: Staphylococcus epidermidis; for MBC: ATCC12228; for MIC: ATCC12228, planktonic, overnight 37°C in MHB
Description: as §1
(§3) MIC and MBC assessments were conducted on all bacterial strains using 96-well microtiter plates. To prepare the wells for bacteria, serial dilutions of the antibacterial agents were carried out along the rows of two microtiter plates. The antibacterials were 2-fold diluted with Mueller-Hinton broth (MHB) in each column, reaching a volume of 75 µL. The 1.0 McFarland standard was diluted 15-fold in MHB, and 75 µL of inoculum was added to the wells treated with antibacterials, resulting in a total volume of 150 µL. The microtiter plates were covered and then shake-incubated overnight at 150 rpm and 37°C. MIC was determined based on visible bacterial growth. In cases of antibacterial opacity or ambiguous results, streaking of well cultures on MHA, overnight incubation, and subsequent comparison with controls were performed. MBC was determined by transferring 3 µL of culture from all MIC microtiter plate wells to 147 µL of Mueller-Hinton broth in fresh plates. These plates were shake-incubated overnight at 150 rpm and 37°C, and bacterial growth was visually inspected.

[4] = tested on: Klebsiella pneumoniae ATCC; test: as above; type: cell-based; conditions: K. pneumonia; for MIC: planktonic, overnight 37°C in MHB
Description: as §1, §3

[5] = tested on: P. mirabilis ATCC 35659; test: as above; type: cell-based; conditions: Proteus mirabilis; for MBC: ATCC35659; for MIC: ATCC35659, planktonic, overnight 37°C in MHB
Description: as §1, §3

[6] = tested on: Staphylococcus aureus ATCC 25923; test: as above; type: cell-based; conditions: Staphylococcus aureus, ATCC25923, S. aureus; for MIC: planktonic, overnight 37°C in MHB
Description: as §1, §3

- MIC [2]: 300 µM (≈ 160 µg/mL)
- MIC [4]: > 5000 µM
- MIC [5]: > 5000 µM
- MIC [6]: 4900 µM (≈ 2610 µg/mL)
SMILES: O=C(Nc1ccc(Cl)c(S(F)(F)(F)(F)F)c1)Nc1ccc(Cl)c(S(F)(F)(F)(F)F)c1 [EBP-56, 1,3-bis(4-Chloro-3-(pentafluoro-λ^6-sulfanyl)phenyl) urea]
- MBC [2]: 610 µM (≈ 325 µg/mL)
- MBC [4]: > 5000 µM
- MBC [5]: > 5000 µM
- MBC [6]: 78000 µM (≈ 41600 µg/mL)

- MIC [2]: 4900 µM (≈ 2110 µg/mL)
- MIC [4]: > 5000 µM
- MIC [5]: > 5000 µM
- MIC [6]: 2400 µM (≈ 1030 µg/mL)
SMILES: O=C(Nc1ccc2nnsc2c1)Nc1cc(S(F)(F)(F)(F)F)ccc1Cl [EPB-23, 3-(1,2,3-benzothiadiazol-6-yl)-1-(2-chloro-5-pentafluoro-λ^6-sulfanyl)urea]
- MBC [2]: 39000 µM (≈ 16800 µg/mL)
- MBC [4]: > 5000 µM
- MBC [5]: > 5000 µM
- MBC [6]: 20000 µM (≈ 8620 µg/mL)

- MIC [2]: 9.5 µM (≈ 3.87 µg/mL)
- MIC [4]: > 5000 µM
- MIC [5]: > 5000 µM
- MIC [6]: 38 µM (≈ 15.5 µg/mL)
SMILES: O=C(Nc1ccc(Cl)cc1)Nc1ccc(Cl)c(S(F)(F)(F)(F)F)c1 [EBP-41, 1-(4-chloro-3-(pentafluoro-λ^6-sulfanyl)phenyl)-3-(4-chlorophenyl)urea]
- MBC [2]: 1200 µM (≈ 489 µg/mL)
- MBC [4]: > 5000 µM
- MBC [5]: > 5000 µM
- MBC [6]: 1200 µM (≈ 489 µg/mL)

- MIC [2]: 8 µM (≈ 3.8 µg/mL)
- MIC [3]: 8 µM (≈ 3.8 µg/mL)
- MIC [4]: > 5000 µM
- MIC [5]: 625 µM (≈ 297 µg/mL)
- MIC [6]: 1.2 µM (≈ 0.57 µg/mL)
SMILES: O=C(Nc1ccc(Cl)c(C(F)(F)F)c1)Nc1cc(S(F)(F)(F)(F)F)ccc1Cl [EBP-37, 3-(4-chloro-3-(trifluoromethyl)phenyl)-1-(2-chloro-5-pentafluoro-λ^6-sulfanyl)urea]
- MBC ([1]; MRSA #1 clinical isolate): 1200 µM (≈ 570 µg/mL)
- MIC ([1]; MRSA #1 clinical isolate): 10 µM (≈ 4.75 µg/mL)
- MBC ([1]; MRSA #2 clinical isolate): 10 µM (≈ 4.75 µg/mL)
- MIC ([1]; MRSA #2 clinical isolate): < 2 µM
- MBC ([1]; MRSA #3 clinical isolate): 600 µM (≈ 285 µg/mL)
- MIC ([1]; MRSA #3 clinical isolate): 80 µM (≈ 38 µg/mL)
- MBC ([1]; MRSA #4 clinical isolate): 10 µM (≈ 4.75 µg/mL)
- MIC ([1]; MRSA #4 clinical isolate): < 2 µM
- MBC ([1]; MRSA #5 clinical isolate): 10 µM (≈ 4.75 µg/mL)
- MIC ([1]; MRSA #5 clinical isolate): 10 µM (≈ 4.75 µg/mL)
- MBC ([1]; MRSA #6 clinical isolate): < 2 µM
- MIC ([1]; MRSA #6 clinical isolate): < 2 µM
- MBC ([1]; MRSA #7 clinical isolate): 40 µM (≈ 19 µg/mL)
- MIC ([1]; MRSA #7 clinical isolate): 10 µM (≈ 4.75 µg/mL)
- MBC ([1]; MRSA #8 clinical isolate): 10 µM (≈ 4.75 µg/mL)
- MIC ([1]; MRSA #8 clinical isolate): < 2 µM
- MBC ([1]; MRSA #9 clinical isolate): 10 µM (≈ 4.75 µg/mL)
- MIC ([1]; MRSA #9 clinical isolate): 5 µM (≈ 2.38 µg/mL)
- MBC ([1]; MRSA #10 clinical isolate): 10 µM (≈ 4.75 µg/mL)
- MIC ([1]; MRSA #10 clinical isolate): < 2 µM
- MBC [2]: 40 µM (≈ 19 µg/mL)
- MBC [3]: 40 µM (≈ 19 µg/mL)
- MBC [4]: > 5000 µM
- MBC [5]: 625 µM (≈ 297 µg/mL)
- MBC [6]: 4900 µM (≈ 2330 µg/mL)

The remaining lines, values behind:

SMILES: O=C(Nc1ccc(Cl)c(C(F)(F)F)c1)Nc1ccc(Cl)c(C(F)(F)F)c1 [EBP-34, 1,3-di(4-chloro-3-(trifluoromethyl)phenyl)urea]
- MBC ([1]; MRSA #1 clinical isolate): < 2 µM
- MIC ([1]; MRSA #1 clinical isolate): 600 µM (≈ 250 µg/mL)
- MBC ([1]; MRSA #2 clinical isolate): < 2 µM
- MIC ([1]; MRSA #2 clinical isolate): < 2 µM
- MBC ([1]; MRSA #3 clinical isolate): 80 µM (≈ 33.4 µg/mL)
- MIC ([1]; MRSA #3 clinical isolate): 80 µM (≈ 33.4 µg/mL)
- MBC ([1]; MRSA #4 clinical isolate): < 2 µM
- MIC ([1]; MRSA #4 clinical isolate): < 2 µM
- MBC ([1]; MRSA #5 clinical isolate): 10 µM (≈ 4.17 µg/mL)
- MIC ([1]; MRSA #5 clinical isolate): 10 µM (≈ 4.17 µg/mL)
- MBC ([1]; MRSA #6 clinical isolate): 10 µM (≈ 4.17 µg/mL)
- MIC ([1]; MRSA #6 clinical isolate): 10 µM (≈ 4.17 µg/mL)
- MBC ([1]; MRSA #7 clinical isolate): 10 µM (≈ 4.17 µg/mL)
- MIC ([1]; MRSA #7 clinical isolate): < 2 µM
- MBC ([1]; MRSA #8 clinical isolate): 5 µM (≈ 2.09 µg/mL)
- MIC ([1]; MRSA #8 clinical isolate): 5 µM (≈ 2.09 µg/mL)
- MBC ([1]; MRSA #9 clinical isolate): < 2 µM
- MIC ([1]; MRSA #9 clinical isolate): < 2 µM
- MBC ([1]; MRSA #10 clinical isolate): 10 µM (≈ 4.17 µg/mL)
- MIC ([1]; MRSA #10 clinical isolate): < 2 µM
- MBC [2]: 61 µM (≈ 25.4 µg/mL)
- MIC [2]: 1.9 µM (≈ 0.793 µg/mL)
- MBC [3]: 10 µM (≈ 4.17 µg/mL)
- MIC [3]: 0.2 µM (≈ 0.0834 µg/mL)
- MBC [4]: > 5000 µM
- MIC [4]: > 5000 µM
- MBC [5]: 625 µM (≈ 261 µg/mL)
- MIC [5]: 625 µM (≈ 261 µg/mL)
- MBC [6]: 10 µM (≈ 4.17 µg/mL)
- MIC [6]: 3.8 µM (≈ 1.59 µg/mL)

SMILES: O=C(Nc1ccc2nnsc2c1)Nc1cccc(S(F)(F)(F)(F)F)c1Cl [EBP-24, 3-(1,2,3-benzothiadiazol-6-yl)-1-(2-chloro-3-pentafluoro-λ^6-sulfanyl)urea]
- MIC [2]: 150 µM (≈ 64.6 µg/mL)
- MBC [4]: > 5000 µM
- MIC [4]: > 5000 µM
- MBC [5]: > 5000 µM
- MIC [5]: > 5000 µM
- MBC [6]: 78000 µM (≈ 33600 µg/mL)
- MIC [6]: 76 µM (≈ 32.7 µg/mL)

SMILES: O=C(Nc1ccc(Cl)c(Cl)c1)Nc1ccc2nnsc2c1 [B]
- MIC [2]: 4900 µM (≈ 1660 µg/mL)
- MBC [4]: > 5000 µM
- MIC [4]: > 5000 µM
- MBC [5]: > 5000 µM
- MIC [5]: > 5000 µM
- MIC [6]: 9800 µM (≈ 3320 µg/mL)

SMILES: O=C(Nc1ccc(S(F)(F)(F)(F)F)cc1)Nc1ccc(S(F)(F)(F)(F)F)cc1 [EBP-33, 1,3-bis(4-pentafluoro-λ^6-sulfanyl)urea]
- MBC [2]: 2400 µM (≈ 1110 µg/mL)
- MIC [2]: 4.8 µM (≈ 2.23 µg/mL)
- MBC [4]: > 5000 µM
- MIC [4]: > 5000 µM
- MBC [5]: > 5000 µM
- MIC [5]: > 5000 µM
- MBC [6]: 20000 µM (≈ 9290 µg/mL)
- MIC [6]: 19 µM (≈ 8.82 µg/mL)
